How the values were obtained:
[1] = Solubility of PHOME in assay buffer; type: physicochemical; conditions: BIS–TRIS buffer with 0.1 g/L Tween 80, in the superloop
Human recombinant sEH = molecular target: T1, Human recombinant sEH (Homo sapiens, UniProt P34913); experiment: LC-BCD/MS; type: biochemical; conditions: mixture of sEHi 6, sEHi 1, sEHi 7, diclofenac and phenylbutazone separated by LC
T1 sequence (P34913 1-555): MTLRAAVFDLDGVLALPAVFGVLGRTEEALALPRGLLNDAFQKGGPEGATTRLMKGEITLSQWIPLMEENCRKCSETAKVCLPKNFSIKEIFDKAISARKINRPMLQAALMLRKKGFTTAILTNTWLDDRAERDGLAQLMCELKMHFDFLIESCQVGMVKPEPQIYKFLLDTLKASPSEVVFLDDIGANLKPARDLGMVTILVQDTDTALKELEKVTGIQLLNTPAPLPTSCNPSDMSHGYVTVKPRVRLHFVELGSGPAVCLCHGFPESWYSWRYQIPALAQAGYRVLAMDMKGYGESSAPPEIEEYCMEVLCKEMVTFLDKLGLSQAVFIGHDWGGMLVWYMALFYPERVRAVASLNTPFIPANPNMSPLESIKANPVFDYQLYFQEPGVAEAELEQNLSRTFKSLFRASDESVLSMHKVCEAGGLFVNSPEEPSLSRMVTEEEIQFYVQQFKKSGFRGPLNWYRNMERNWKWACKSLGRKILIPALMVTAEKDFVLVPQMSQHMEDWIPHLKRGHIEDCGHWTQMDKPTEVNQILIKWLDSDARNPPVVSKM

limit of solubility [1]	sEH activity (BCD peak) in a standard mixture (Human recombinant sEH)	Structure (SMILES)
~30 µM		COc1ccc2cc(C(C#N)OC(=O)CC3OC3c3ccccc3)ccc2c1 (centres unmarked) [PHOME, (3-phenyl-oxiranyl)-acetic acid cyano-(6-methoxy-naphthalen-2-yl)-methyl ester]
	without sEH activity	CCCCC1C(=O)N(c2ccccc2)N(c2ccccc2)C1=O [phenylbutazone]

Source: publication PMC3601784 (Chromatographia, 2012)
